{
  "source": "paper PMC9501899",
  "about": "(Journal of the American Chemical Society, 2022)",
  "key": {"VHL-NanoLuc": {"biological_target": "T1, VHL-NanoLuc (Homo sapiens, UniProt P40337)", "T1 construct": "host or cells: HEK293", "experiment": "NanoBRET VHL target engagement assay in HEK293 cells", "type": "binding", "procedure": "Figure 9 Binding affinities to VHL and LRRK2. (A) Binding affinity of the tested compounds to VHL using the FP assay. […] NanoBRET target engagement assays of tested compounds to VHL (B) and LRRK2 (C) in permeabilized and live-cell modes. The indicated compounds were titrated into HEK293 cells transfected with VHL-NanoLuc (B) or LRRK2-NanoLuc fusion (C) in the presence of VHL tracer (B) or LRRK2 tracer (C). 0.25 and 0.5 μM VHL tracers were used for the permeabilized and live mode VHL engagement assays separately. 0.125 and 0.5 μM of LRRK2 tracer were used for the permeabilized and live mode LRRK2 engagement assays separately. […]\nFor VHL and LRRK2 target engagement experiments in live and permeabilized cells, the HEK293 cells were transfected with the VHL-NanoLuc fusion vector (Promega, N275A) or LRRK2-NanoLuc fusion vector (Promega, NV3401) following Promega’s protocol and seeded into a white 384-well plate (Corning3570) at a density of 6000 cells/well. […] The filtered luminescence was measured within 10 min following the addition of the substrate on a GloMax Discover microplate reader (Promega) or a PHERAstar (BMG LABTECH) plate reader equipped with a 450 nm bandpass filter (donor) and a 600 nm long-pass filter (acceptor). […]"}, "LRRK2": {"biological_target": "T2, LRRK2 (Mus musculus, UniProt Q5S006)", "T2 construct": "endogenous in cells; host or cells: mouse bone marrow-derived macrophages", "T2 sequence (Q5S006 whole entry)": "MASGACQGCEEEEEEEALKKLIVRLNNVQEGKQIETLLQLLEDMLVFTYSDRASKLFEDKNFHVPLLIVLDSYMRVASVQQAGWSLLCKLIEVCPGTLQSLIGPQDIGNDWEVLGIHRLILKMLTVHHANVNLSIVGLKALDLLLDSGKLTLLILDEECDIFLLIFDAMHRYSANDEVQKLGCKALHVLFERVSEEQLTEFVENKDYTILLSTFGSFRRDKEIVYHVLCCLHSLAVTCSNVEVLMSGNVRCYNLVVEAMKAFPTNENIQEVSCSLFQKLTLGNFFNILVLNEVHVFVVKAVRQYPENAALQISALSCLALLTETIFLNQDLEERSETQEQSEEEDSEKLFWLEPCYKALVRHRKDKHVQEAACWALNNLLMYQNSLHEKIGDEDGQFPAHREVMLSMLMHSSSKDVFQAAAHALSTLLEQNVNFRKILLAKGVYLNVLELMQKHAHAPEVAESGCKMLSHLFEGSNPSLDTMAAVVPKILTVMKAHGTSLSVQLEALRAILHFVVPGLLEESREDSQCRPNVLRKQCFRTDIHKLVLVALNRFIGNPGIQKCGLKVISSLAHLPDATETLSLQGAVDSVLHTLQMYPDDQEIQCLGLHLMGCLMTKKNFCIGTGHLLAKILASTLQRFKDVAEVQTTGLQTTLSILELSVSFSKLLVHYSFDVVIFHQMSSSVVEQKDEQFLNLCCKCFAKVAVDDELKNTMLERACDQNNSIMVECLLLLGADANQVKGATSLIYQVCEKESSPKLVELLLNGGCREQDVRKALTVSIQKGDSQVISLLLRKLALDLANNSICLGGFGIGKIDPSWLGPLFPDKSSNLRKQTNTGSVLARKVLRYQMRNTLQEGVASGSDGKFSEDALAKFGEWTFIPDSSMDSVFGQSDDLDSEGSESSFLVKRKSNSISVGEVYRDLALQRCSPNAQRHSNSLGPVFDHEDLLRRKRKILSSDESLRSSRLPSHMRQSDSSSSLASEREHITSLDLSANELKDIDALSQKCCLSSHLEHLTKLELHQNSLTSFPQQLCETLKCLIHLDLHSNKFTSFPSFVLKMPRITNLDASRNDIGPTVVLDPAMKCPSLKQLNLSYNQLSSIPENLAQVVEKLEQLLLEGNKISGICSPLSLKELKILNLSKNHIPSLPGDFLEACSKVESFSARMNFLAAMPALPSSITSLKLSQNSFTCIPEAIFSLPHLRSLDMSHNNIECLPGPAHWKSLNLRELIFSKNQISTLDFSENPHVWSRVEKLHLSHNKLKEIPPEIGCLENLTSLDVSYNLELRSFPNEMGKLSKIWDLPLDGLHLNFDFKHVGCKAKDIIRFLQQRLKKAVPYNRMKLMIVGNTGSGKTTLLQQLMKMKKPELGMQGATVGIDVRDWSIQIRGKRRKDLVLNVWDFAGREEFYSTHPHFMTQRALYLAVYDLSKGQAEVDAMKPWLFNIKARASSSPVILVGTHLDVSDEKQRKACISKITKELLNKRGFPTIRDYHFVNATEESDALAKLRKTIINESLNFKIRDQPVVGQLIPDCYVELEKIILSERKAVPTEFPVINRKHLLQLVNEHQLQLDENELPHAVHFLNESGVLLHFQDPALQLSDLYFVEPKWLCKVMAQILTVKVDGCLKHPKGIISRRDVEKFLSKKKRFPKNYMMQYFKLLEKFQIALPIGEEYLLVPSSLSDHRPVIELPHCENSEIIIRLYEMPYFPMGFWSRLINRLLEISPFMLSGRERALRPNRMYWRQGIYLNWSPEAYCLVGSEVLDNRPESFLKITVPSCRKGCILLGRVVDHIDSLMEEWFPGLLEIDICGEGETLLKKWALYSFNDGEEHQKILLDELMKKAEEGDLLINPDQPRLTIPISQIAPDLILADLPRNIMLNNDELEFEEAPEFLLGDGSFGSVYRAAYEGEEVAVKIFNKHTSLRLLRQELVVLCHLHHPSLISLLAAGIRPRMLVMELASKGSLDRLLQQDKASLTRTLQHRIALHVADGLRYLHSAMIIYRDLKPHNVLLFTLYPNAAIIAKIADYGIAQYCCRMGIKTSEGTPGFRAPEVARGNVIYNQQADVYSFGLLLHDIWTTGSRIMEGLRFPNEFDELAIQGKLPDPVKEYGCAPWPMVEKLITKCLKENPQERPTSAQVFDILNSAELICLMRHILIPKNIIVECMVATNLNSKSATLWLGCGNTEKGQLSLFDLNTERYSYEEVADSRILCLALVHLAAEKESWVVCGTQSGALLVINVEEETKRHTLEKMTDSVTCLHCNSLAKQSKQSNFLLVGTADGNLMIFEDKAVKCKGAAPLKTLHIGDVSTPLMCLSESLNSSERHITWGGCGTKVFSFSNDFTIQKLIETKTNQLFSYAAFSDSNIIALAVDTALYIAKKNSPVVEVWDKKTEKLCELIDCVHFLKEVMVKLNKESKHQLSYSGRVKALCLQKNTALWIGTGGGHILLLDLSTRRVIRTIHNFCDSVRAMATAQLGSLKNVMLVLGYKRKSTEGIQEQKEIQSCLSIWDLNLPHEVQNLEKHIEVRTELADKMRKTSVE", "experiment": "LRRK2 degradation in bone marrow-derived macrophages (BMDMs)", "type": "cell-based", "conditions": "4 h", "description": "The relative LRRK2 protein and pRab10 levels were obtained by quantifying the ratios of total LRRK2/GAPDH or Rab10-pThr73/total Rab10, respectively, and the ratios were normalized to the DMSO-treated samples. The relative LRRK2 and pRab10 protein levels were plotted against the compound concentration and fitted against “nonlinear regression, one site-fit log IC50” in GraphPad to obtain the DC50 and EC50 values. Data points are presented as mean ± standard error of the mean (SEM) from three biological independent replicates. […] The relative LRRK2 protein and pRab10 levels were obtained by quantifying the ratios of total LRRK2/ GAPDH or Rab10-pThr73/total Rab10, respectively, and the ratios were normalized to the DMSO-treated samples. The relative LRRK2 and pRab10 protein levels were plotted against the treatment time and were fitted against “nonlinear regression, one-phase decay” in GraphPad to obtain the half-life (T1/2) values. Data points are presented as mean ± SEM from three biological independent replicates. […] The relative LRRK2 levels were obtained by quantifying the ratios of total LRRK2/tubulin and normalized to the DMSO-treated samples. The relative LRRK2 levels were plotted against the compound concentration and fitted against “nonlinear regression, one site-fit log IC50” in GraphPad to obtain the DC50 values.\nBone marrow isolation and macrophage differentiation were modified from ref ([81]), employing an L929 preconditioned medium as the source of M-CSF for differentiation. Briefly, scissors and forceps were used to dissect femurs and tibiae from adult mice, and muscle tissues were carefully removed from bones. Clean femurs and tibiae were placed in a tissue culture dish containing complete media. The ends of each bone were cut with scissors to expose the bone marrow. […] The cell suspension was counted, and cells were seeded for experimental analysis in a six-well format in tissue culture-treated dishes at a final cell density of one million cells per well of a six-well plate. […]"}},
  "data": [
    {"smiles": "CNc1nc(Nc2ccc(C(=O)N3CCN(CCOCCOCCSC(C)(C)[C@H](NC(=O)C4(F)CC4)C(=O)N4C[C@H](O)C[C@H]4C(=O)NCc4ccc(-c5scnc5C)cc4)CC3)cc2OC)ncc1Cl", "note": "[SD75]", "values": [
      {"measurement": "VHL IC50 Permeabilized/IC50 Live", "setting": "VHL-NanoLuc; ratio used to compare permeabilities", "value": 0.76}
    ]},
    {"smiles": "CNc1nc(Nc2ccc(C(=O)N3CCN(C[C@H]4CC[C@H](CSC(C)(C)[C@H](NC(=O)C5(F)CC5)C(=O)N5C[C@H](O)CC5C(=O)NCc5ccc(-c6scnc6C)cc5)CC4)CC3)cc2OC)ncc1Cl", "note": "(stereo partly drawn) [XL01126, (2S,4R)-1-((R)-3-((((1R,4R)-4-((4-(4-((5-Chloro-4-(methylamino)pyrimidin-2-yl)amino)-3-methoxybenzoyl)piperazin-1-yl)methyl)cyclohexyl)methyl)thio)-2-(1-fluorocyclopropane-1-carboxamido)-3-methylbutanoyl)-4-hydroxy-N-(4-(4-methylthiazol-5-yl)benzyl)pyrrolidine-2-carboxamide]", "values": [
      {"measurement": "IC50", "setting": "VHL-NanoLuc; permeabilized HEK293 cells", "value": "> 10", "unit": "µM"},
      {"measurement": "Dmax", "setting": "LRRK2; BMDM", "value": 83, "unit": "%"}
    ]},
    {"smiles": "CNc1nc(Nc2ccc(C(=O)N3CCN(C[C@H]4CC[C@H](CSC(C)(C)[C@H](NC(=O)C5(F)CC5)C(=O)N5C[C@@H](O)C[C@H]5C(=O)NCc5ccc(-c6scnc6C)cc5)CC4)CC3)cc2OC)ncc1Cl", "note": "[cis-XL01126, (2S,4S)-1-((R)-3-((((1R,4R)-4-((4-(4-((5-Chloro-4-(methylamino)pyrimidin-2-yl)amino)-3-methoxybenzoyl)piperazin-1-yl)methyl)cyclohexyl)methyl)thio)-2-(1-fluorocyclopropane-1-carboxamido)-3-methylbutanoyl)-4-hydroxy-N-(4-(4-methylthiazol-5-yl)benzyl)pyrrolidine-2-carboxamide]", "values": [
      {"measurement": "DC50s (LRRK2)", "setting": "LRRK2", "value": "NDO"},
      {"measurement": "Dmax (LRRK2)", "setting": "LRRK2", "value": "NDO"}
    ]}
  ]
}
